# From publication PMC5571359, “Screening the Medicines for Malaria Venture Pathogen Box across Multiple Pathogens Reclassifies Starting Points for Open-Source Drug Discovery” (Antimicrobial Agents and Chemotherapy, 2017)
# Read-outs that look alike come from different tables or passages of the source.
# Legend:
# HepG2 = conditions: cited from earlier work; for HepG2 PBox CC20 μMc: ref Pbox supporting information
# P. falciparum ABS = conditions: cited from earlier work; for EC50: ChEMBL Data; for IC50: read-out: Pf 3D7 Pbox IC50
# liver stage = conditions: cited from earlier work
# [1] = tested on: L. donovani MHOM/IN/80/DD8 intracellular amastigotes; test: Leishmania donovani intracellular amastigote assay in THP-1 cells; type: cell-based; conditions: Leishmania donovani, THP-1, read-out: L, donovani Discovery Biology IC50 µM
# HEK293 cells = test: HEK293 resazurin cell cytotoxicity assay; conditions: Homo sapiens
# [2] = tested on: Plasmodium falciparum 3D7 asexual blood stage; test: microbe, parasite or virus in culture
# [3] = tested on: NF54-pfs16-LUC-GFP stage IV gametocytes; test: Plasmodium falciparum late stage gametocyte (LSG) image-based assay; type: cell-based; conditions: Plasmodium falciparum
# [4] = tested on: T. cruzi C4 β-galactosidase reporter parasite in MRC 5SV2 host cells; conditions: ref Pbox supporting information; read-out: T. cruzi Pbox IC50; cited from earlier work
# [5] = tested on: T. cruzi intracellular amastigotes; test: Intracellular anti-Trypanosoma cruzi image-based assay (amastigotes); type: cell-based; conditions: for Emax / IC50: Trypanosoma cruzi; for Emax: PBox kinetoplastid set compounds active against T. cruzi alone, read-out: Emax against T. cruzi (subefficacious effect); for IC50: intracellular amastigotes
# [6] = tested on: T. b. brucei 427 bloodstream trypanosomes; test: T. b. brucei resazurin viability assay; type: cell-based, Trypanosoma brucei brucei; conditions: Trypanosoma brucei; read-out: T b.brucei Discovery Biology IC50
# [7] = read-out: HepG2 PBox CC50 µM, ref PBox supporting information
# [8] = P. falciparum 3D7, ref PBox supporting information
# [9] = ref Pbox supporting information
# [10] = HEK293, read-out: HEK % Discovery Biology IC50 uM
# [11] = 3D7, read-out: Pf 3D7 Discovery Biology IC50 µM, P. falciparum 3D7 asexual blood stage
# [12] = NF54, read-out: Pf Stage IV GAMS Discovery Biology IC50 µM, stage IV gametocytes
# [13] = read-out: HepG2 PBox CC50 µM, HepG2 CC50, ref Pathogen Box supporting information
# [14] = TCMDC, read-out: TCMDC (ref 93) EX50
# [15] = Pf 3D7, ref Pathogen Box supporting information
# [16] = liver stage, ref Pathogen Box supporting information, read-out: LIVER STAGE Pbox IC50
# [17] = read-out: T cruzi Discovery Biology IC50
# [18] = ref PBox supporting information
# [19] = HEK293, read-out: HEK % Inhibition 20uM/IC50 Discovery Biology
# [20] = NITD, read-out: NITD (ref 94) EC50
# [21] = read-out: HepG2 PBox CC50 µM, HepG2 cytotoxicity, ref PBox supporting information
# [22] = 3D7, read-out: Antiplasmodial IC50 (ABS), PBox compounds, P. falciparum 3D7
# [23] = 3D7, read-out: activity against P. falciparum (novel antiplasmodial actives of the tuberculosis set)
# [24] = NF54, read-out: Antiplasmodial IC50 (GAM / LSG), PBox compounds, stage IV gametocytes, single determination
# [25] = 3D7, read-out: Pf 3D7 Discovery Biology IC50 µM, P. falciparum 3D7 asexual blood stage, Discovery Biology
# [26] = NF54, read-out: Pf Stage IV GAMS Discovery Biology IC50 µM, stage IV gametocytes, Discovery Biology
# [27] = PBox compounds, 48 h exposure, read-out: IC50 T. cruzi (Discovery Biology)
structure (smiles),measurement,setting,value
Nc1nccc2ccc(Oc3ccncc3)cc12 [MMV026313],CC50,HepG2; [7],> 10 µM
same,EC50,"P. falciparum ABS; P. falciparum, read-out: TCMDC (ref 93) EX50",480 nM
same,IC50,P. falciparum ABS; [8],230 nM
same,IC50,liver stage; [9],> 10 µM
COc1cccc(-c2cc3c(Nc4cccnc4)nccc3[nH]2)c1 [MMV392832],CC50,HepG2; [7],> 10 µM
same,IC50,P. falciparum ABS; [8],1280 nM
same,IC50,liver stage; [9],> 10 µM
CNc1nnc(Sc2cnn(-c3ccccc3)c(=O)c2Cl)s1 [MMV688763],HepG2 PBox CC20 μMc,HepG2,1.6 µM
same,IC50,"[1]; intracellular amastigotes, values marked *",2.11 µM
same,IC50,HEK293 cells; [10],6.32 µM
same,IC50,[2]; [11],3.36 µM
same,IC50,[3]; [12],5.33 µM
Cc1ccc(Oc2ccc(NC(=O)CNc3ccccc3N3CCCC3=O)cc2)cc1 [MMV020512],CC50,HepG2; [13],9.8 µM
same,EC50,P. falciparum ABS; [14],370 nM
same,IC50,P. falciparum ABS; [15],480 nM
same,IC50,liver stage; [16],9.1 µM
O=C(Nc1cccc(Cl)c1)c1cnc(N2CCN(c3ccncc3)CC2)c(Cl)c1 [MMV024406],CC50,HepG2; [13],> 10 µM
same,EC50,P. falciparum ABS; [14],960 nM
same,IC50,P. falciparum ABS; [15],830 nM
same,IC50,liver stage; [16],2.35 µM
O=C1N(Cc2cc3ccccc3s2)CC2CN(Cc3ccccc3)CCN12 (stereo not shown) [MMV084603],CC50,HepG2; [7],> 10 µM
same,EC50,"P. falciparum ABS; P. falciparum, read-out: NITD (ref 94) EC50",440 nM
same,IC50,P. falciparum ABS; [8],1160 nM
same,IC50,liver stage; [9],0.2 µM
FC(F)(F)c1ccc(N(c2cccnc2)C2CCN(c3ccc(C(F)(F)F)cn3)CC2)cc1 [MMV689243],IC50,[4],15 nM
same,Emax,[5],< 100%
same,IC50,[5]; [17],700 nM
same,HepG2 PBox CC20,HepG2; [18],25.8 µM
same,IC50,HEK293 cells; [19],> 20 µM
O=C([C@@H](c1ccc(Cl)cc1)c1cccnc1)N1CCN(c2ccc(C(F)(F)F)cc2)CC1 [MMV689244],IC50,[4],7.5 nM
same,Emax,[5],< 100%
same,IC50,[5]; [17],120 nM
same,HepG2 PBox CC20,HepG2; [18],19.0 µM
same,IC50,HEK293 cells; [19],> 20 µM
FC(F)(F)c1cccc(-c2nc3c(NCc4ccncc4)nccc3[nH]2)c1 [MMV032967],CC50,HepG2; [7],> 10 µM
same,IC50,P. falciparum ABS; [8],510 nM
same,IC50,liver stage; [9],> 10 µM
COc1ccc(-c2nn(C(C)C)c3ncnc(N)c23)cc1OC [MMV675993],HepG2 PBox CC20,HepG2; [18],1.6 µM
same,inhibition at 20 µM,HEK293 cells; [19],73%
same,IC50,"[2]; 3D7, read-out: Pf 3D7 Discovery Biology IC50, P. falciparum 3D7 asexual blood stage",1.07 µM
same,IC50,"[3]; NF54, read-out: Pf Stage IV GAMS Discovery Biology IC50, stage IV gametocytes",1.95 µM
O=C(Nc1ccc(N2CCNCC2)nc1)c1oc(-c2ccccc2)nc1C(F)(F)F [MMV024937],CC50,HepG2; [13],> 10 µM
same,EC50,P. falciparum ABS; [14],980 nM
same,IC50,P. falciparum ABS; [15],1220 nM
same,IC50,liver stage; [16],2.55 µM
c1csc(-c2cnc3sc(NCC4CCOCC4)nn23)c1 [MMV010764],CC50,HepG2; [13],> 10 µM
same,IC50,P. falciparum ABS; [15],1370 nM
same,IC50,liver stage; [16],> 10 µM
Cc1ccc(NC(=O)c2cc(S(=O)(=O)NC(C)(C)C)ccc2C)nc1 [MMV020289],CC50,HepG2; [13],> 7.5 µM
same,EC50,P. falciparum ABS; [14],760 nM
same,IC50,P. falciparum ABS; [15],930 nM
same,IC50,liver stage; [16],7.35 µM
O=C(NC1CC1)c1ccc(N2CCOc3ccc(Cl)cc32)s1 [MMV020537],CC50,HepG2; [13],> 10 µM
same,EC50,P. falciparum ABS; [14],800 nM
same,IC50,P. falciparum ABS; [15],1030 nM
same,IC50,liver stage; [16],3.48 µM
O=C1Nc2ccc(Br)cc2C12NCCc1c2[nH]c2ccccc12 (stereo not shown) [MMV006239],CC50,HepG2; [13],> 10 µM
same,EC50,P. falciparum ABS; [20],200 nM
same,IC50,P. falciparum ABS; [15],510 nM
same,IC50,liver stage; [16],> 10 µM
CCOc1ccc(-c2nc(NC(=O)CS(=O)(=O)c3ccccc3)sc2C)cc1 [MMV007638],CC50,HepG2; [13],> 10 µM
same,EC50,P. falciparum ABS; [20],530 nM
same,EC50,P. falciparum ABS; [14],510 nM
same,IC50,P. falciparum ABS; [15],660 nM
same,IC50,liver stage; [16],> 10 µM
O=C(NC1CCN(c2ccnc3ccccc23)C1)c1cccc(C(F)(F)F)c1 (stereo not shown) [MMV023388],CC50,HepG2; [13],> 10 µM
same,EC50,P. falciparum ABS; [14],900 nM
same,IC50,P. falciparum ABS; [15],710 nM
same,IC50,liver stage; [16],6.54 µM
NCC(=O)N1CCn2c(nc(-c3ccccc3)c2Nc2ccc3c(c2)OCO3)C1 [MMV011691],CC50,HepG2,> 10 µM
same,EC50,P. falciparum ABS; [20],160 nM
same,IC50,P. falciparum ABS; [15],640 nM
same,IC50,liver stage; [16],3.78 µM
Nc1ccc(C(=O)Nc2ccc(-c3nc4ccccc4o3)cc2)cc1 [MMV007920],CC50,HepG2; [13],> 10 µM
same,EC50,P. falciparum ABS; [20],940 nM
same,IC50,P. falciparum ABS; [15],1550 nM
same,IC50,liver stage; [16],> 10 µM
O=C(Nc1nc(-c2ccccn2)cs1)c1cncn1-c1ccccc1 [MMV676512],IC50,"[5]; Discovery Biology, read-out: T cruzi Discovery Biology IC50",4120 nM
same,CC50,HepG2; [21],3.8 µM
same,IC50,HEK293 cells; [10],2.83 µM
same,IC50,[6],2.87 µM
CCC(Sc1nc2ccccc2o1)C(=O)Nc1nccs1 (stereo not shown) [MMV676383],CC50,HepG2; [21],13 µM
same,inhibition at 20 µM,HEK293 cells; [19],88%
same,IC50,[2]; [22],4.43 µM
same,IC50,[2]; [23],4 to 5 µM
same,IC50,[3]; [24],1.37 µM
CO/C=C(/C(=O)OC)c1ccccc1Oc1cc(Oc2ccccc2C#N)ncn1 [MMV021057],inhibition at 20 µM,HEK293 cells; [19],71%
same,IC50,"[2]; 3D7, read-out: Antiplasmodial IC50 (ABS)",0.04 µM
same,IC50,"[2]; 3D7, read-out: Pf 3D7 Discovery Biology IC50 µM",0.035 µM
same,IC50,[3]; [24],0.03 µM
same,IC50,P. falciparum ABS; [15],53.6 nM
O=C1COCc2ccc(Br)cc2N1Cc1ccc(C(F)(F)F)cc1 [MMV032995],IC50,P. falciparum ABS; [8],960 nM
same,IC50,liver stage; [9],2 µM
O=C(Nc1ccc(C(F)(F)F)c(C(F)(F)F)c1)c1cc(Cl)ccc1O [MMV687807],CC50,HepG2; [21],0.65 µM
same,IC50,"[1]; Discovery Biology, some values carry an asterisk (not explained in the part shown)",5.06 µM
same,IC50,HEK293 cells; [10],1.99 µM
same,IC50,[2]; [25],1.82 µM
same,IC50,[6],0.66 µM
same,IC50,[3]; [26],5.07 µM
COc1cccc(-c2nc3c(N4CCCC4)cccc3n2CC2CCCN2)n1 (stereo not shown) [MMV687703],CC50,HepG2; [21],25 µM
same,inhibition at 20 µM,HEK293 cells; [19],76%
same,IC50,[2]; [22],1.33 µM
same,IC50,[2]; [23],< 2 µM
same,IC50,[3]; [24],3.83 µM
CS(=O)(=O)c1ccc(C(=O)N(CC2CCCO2)c2nc3ccccc3s2)cc1[N+](=O)[O-] (stereo not shown) [MMV688761],HepG2 PBox CC20 μMc,HepG2,6.9 µM
same,inhibition at 20 µM,HEK293 cells; [19],42%
same,IC50,[2]; [11],4.08 µM
same,IC50,[6],3.49 µM
same,IC50,[3]; [12],0.9 µM
CC(Oc1ccccc1)C(=O)Nc1nc(-c2ccccn2)cs1 (stereo not shown) [MMV676411],CC50,HepG2; [21],29.3 µM
same,inhibition at 20 µM,HEK293 cells; [19],81%
same,IC50,[2]; [25],5 µM
same,IC50,[6],3.22 µM
same,IC50,[3]; [26],1.92 µM
CNc1cc(C)nc(C2CN(C(=O)c3n[nH]c4ccccc34)CCO2)c1 (stereo not shown) [MMV689709],IC50,[4],3890 nM
same,IC50,[5]; [27],3320 nM
same,IC50,HEK293 cells; [19],> 20 µM
CC(C)n1nc(-c2cc3c(Cl)cccc3[nH]2)c2c(N)ncnc21 [MMV688417],activity against T. cruzi in the Discovery Biology assay,[5],subefficacious activity
same,IC50,[5]; [27],1430 nM
same,inhibition at 20 µM,HEK293 cells; [19],83%
same,IC50,[6],6.1 µM
NS(=O)(=O)c1cncc(-c2ccc3nccc(-c4cn[nH]c4)c3n2)c1 [MMV024101],EC50,P. falciparum ABS; [14],530 nM
same,IC50,P. falciparum ABS; [15],600 nM
same,IC50,liver stage; [16],2.17 µM
